# Laboratory results taken from PMC3651882 (Bioconjugate chemistry, 2013).
# What was measured:
# Type in all cases: cell-based, human
# KB-V1 cells [1] = experiment: Cellular uptake by flow cytometry; settings: for Time dependence of cell fluorescence intensity (in words): 5 μM, 1, 2 and 4 h
# KB-3-1 cells [2] = experiment: Cellular uptake by flow cytometry; settings: 2.5-15 μM, 2 h
# KB-3-1 cells [3] = experiment: Cytotoxicity, SRB method; settings: 50 NM as printed, 2 h incubation
# KB-V1 cells [4] = experiment: Cytotoxicity, SRB method; settings: 50 μM, 2 h incubation
# KB-3-1 cells [5] = experiment: Subcellular colocalization, confocal microscopy; settings: 15 μM, 2 h, Lysotracker Green, Hoechst 33342
# KB-V1 cells [6] = experiment: Subcellular colocalization, confocal microscopy; settings: 15 μM, 2 h, Lysotracker Green, Hoechst 33342
smiles,measurement,setting,value
"O=C(O)c1ccc2c(c1)C(=O)OC21c2ccc(O)cc2Oc2cc(O)ccc21 [5-FAM, 5-carboxyfluorescein]",Time dependence of cell fluorescence intensity (in words),KB-V1 cells [1],did not change with time
"COc1cccc2c1C(=O)c1c(O)c3c(c(O)c1C2=O)C[C@@](O)(C(=O)CO)C[C@@H]3O[C@H]1C[C@H](N)[C@H](O)[C@H](C)O1 [Dox, doxorubicin]",Time dependence of cell fluorescence intensity (in words),KB-V1 cells [1],did not change with time
same,Cellular uptake (in words),"KB-V1 cells [1]; 2.5-15 μM, 2 h",greatly inhibited
same,Cellular uptake (in words),KB-3-1 cells [2],very efficient
same,Cytotoxicity (in words),KB-3-1 cells [3],nearly all the cells were killed
same,Cytotoxicity (in words),KB-V1 cells [4],no significant cytotoxicity
same,Cells killed (cell death),"KB-V1 cells [4]; then 46 h fresh medium, SRB",14%
same,Subcellular location (in words),KB-3-1 cells [5],no preference to accumulate in any subcellular organelles
same,Subcellular location (in words),KB-V1 cells [6],dim red fluorescence was observed only on the membrane
